The record followed here is patent publication US10905671B2, “Method of using omega 3 fatty acids to treat diseases which involve damage to the nervous system” (priority 2013, dated 2021).

Series [1] concerns scleritis. Kind of series: Patients with scleritis (Example 3). The class given is in vivo, human. Conditions: two patients; 10 mg.
The test system of series [2] is moderate thyroid eye disease. Kind of series: Patients with moderate thyroid eye disease (Example 5). The class given is in vivo, human. Conditions: 3 patients; 10 mg. How it is done: The invention was used in 3 patients with moderate thyroid eye disease. The patients were controlled with 10 mg of prednisolone or with 7.5 g to 10 g of EPA and DHA and having a AA/EPA ratio between 1 to 1.5.

As for `C[C@]12C=CC(=O)C=C1CC[C@@H]1[C@@H]2[C@@H](O)C[C@@]2(C)[C@H]1CC[C@]2(O)C(=O)CO` [prednisolone], in series [1], the control of scleritis entry is reported as “controlled” and the side effects result is reported as “had to stop due to the side effects”. In series [2], the “control of thyroid eye disease” value is “controlled”.
